Results from patent US20120015809A1 (priority 2009, published 2012).
Counter-ions that a name gives are not always drawn. Like-named read-outs stand apart in the source and are kept apart here.

Test system: Ralstonia solanacearum (race 1, biovar 1; tomato strain Rs5)
Conditions: 72 h; for Number of colonies: mean ± standard error (n = 6)

[H]/N=C(/N)N[C@H]1[C@H](O)[C@@H](O)[C@H](O[C@@H]2O[C@@H](C)[C@](O)(C=O)[C@H]2O[C@@H]2O[C@@H](CO)[C@H](O)[C@@H](O)[C@@H]2NC)[C@@H](N/C(N)=N\[H])[C@@H]1O [Streptomycin, streptomycin sulfate]
Mortality (%) (200 mg kg^−1 soil): 0.9% | Number of colonies (200 mg kg^−1 soil): 256000 ± 16500 | Mortality (%) (400 mg kg^−1 soil): 11.9% | Number of colonies (400 mg kg^−1 soil): 227000 ± 78100 | Mortality (%) (800 mg kg^−1 soil): 21.6% | Mortality (%) (800 mg kg^−1 soil, listed as streptomycin): 21% | Number of colonies (800 mg kg^−1 soil): 204000 ± 82900 | Mortality (%) (1500 mg kg^−1 soil): 75.3% | Number of colonies (1500 mg kg^−1 soil): 63800 ± 42300
